In general, IC90 refers to the concentration needed for an effect of 90%.

The test deals with SU-DHL-4 cells. Briefly: Inhibitory effect on cell viability in SU-DHL-4 cell line (Test Example 1). Format: cell-based, human. Conditions: SU-DHL-4 cells, 72 hours, Cell Counting Kit-8; concentration showing 90% inhibition of cell viability; read-out: SU-DHL-4 Cell Viability Inhibition Rate IC90. As to the method:
SU-DHL-4 cells (Code No. ACC 495, Deutsche Sammlung von Mikroorganismen and Zellkulturen GmbH; DSMZ) were cultured at 37° C. using a carbon dioxide incubator (95% air, 5% CO2) in RPMI1640 medium (Code No. 11875-093, Thermo Fisher Scientific) in which inactivated fetal bovine serum (FBS: Code No. 10099-148, Thermo Fisher Scientific) in an amount to give a final concentration of 10 vol % and penicillin/streptomycin solution (PS: […] The cells were passaged twice a week at a volume of 20-40 mL so as to maintain a cell concentration of 1×10^6 cells/mL or less. […] After seeding, the cells were precultured at 37° C. in a carbon dioxide gas incubator for 18 to 25 hours. […] At this time, the final concentration of DMSO was adjusted to be 0.1 vol %. After adding the test compound, the cells were cultured at 37° C. in a carbon dioxide gas incubator for 72 hours. Next, 0.020 mL of Cell Counting Kit-8 (Code No. CK04, DOJINDO) solution diluted 2-fold or 4-fold with phosphate buffered saline (PBS) was added to each well. Color reaction was carried out in a carbon dioxide gas incubator at 37° C. for 2 to 3 hours, and the absorbance at a wavelength of 450 nm was measured using SpectraMax 340PC (Molecular Devices). […] Absorbance of a well containing test compound • B: Absorbance of a well without addition of cells • C: Absorbance of a well without addition of test compound
(Tetrazolium dyes change colour on reduction, which living cells bring about.)

On to `CCC(=O)N1c2ccccc2[C@H](Nc2ccc(C(=O)NCCS(=O)(=O)NC3CCC(N[C@@H]4C[C@H](C)N(C(=O)CC)c5ccccc54)CC3)cc2)C[C@@H]1C` (relative stereo) [Compound 9a, 4-(((2S,4R)-2-Methyl-1-propionyl-1,2,3,4-tetrahydroquinolin-4-yl)amino)-N-(2-(N-((1R,4R)-4-(((2S*,4R*)-2-methyl-1-propionyl-1,2,3,4-tetrahydroquinolin-4-yl)amino)cyclohexyl)sulfamoyl)ethyl)benzamide], for which the concentration for an effect of 90% (IC90) is 1.68 nM.
For the compound `CCC(=O)N1c2ccccc2[C@H](Nc2ccc(C(=O)N[C@H]3C[C@H](NC(=O)c4ccc(N[C@@H]5C[C@H](C)N(C(=O)CC)c6ccccc65)cc4)C3)cc2)C[C@@H]1C` [Compound 1j, N,N′-[(1r,3r)-Cyclobutane-1,3-diyl]bis(4-{[(2S,4R)-2-methyl-1-propionyl-1,2,3,4-tetrahydroquinolin-4-yl]amino}benzamide)], the IC90 came out at 33.1 nM.
Turning to `CCC(=O)N1c2ccccc2[C@H](Nc2ccc(C(=O)NCCCNC(=O)c3ccc(C4=N[C@@H](CC(=O)OCCN(C)C)c5nnc(C)n5-c5sc(C)c(C)c54)cc3)cc2)C[C@@H]1C` [Compound 13c, 2-(Dimethylamino)ethyl 2-((S)-2,3,9-trimethyl-4-(4-((3-(4-(((2S,4R)-2-methyl-1-propionyl-1,2,3,4-tetrahydroquinolin-4-yl)amino)benzamide)propyl)carbamoyl)phenyl)-6H-thieno[3,2-f][1,2,4]triazolo[4,3-a][1,4]diazepin-6-yl)acetate], the IC90 is 7.36 nM.
Under `CCC(=O)N1c2ccccc2[C@H](Nc2ccc(C(=O)NCCNC(=O)c3ccc(C4=N[C@@H](CC(=O)OC(C)(C)C)c5nnc(C)n5-c5sc(C)c(C)c54)cc3)cc2)C[C@@H]1C` [Compound 1o, tert-Butyl 2-[(S)-2,3,9-trimethyl-4-(4-{[2-(4-{[(2S,4R)-2-methyl-1-propionyl-1,2,3,4-tetrahydroquinolin-4-yl]amino}benzamide)ethyl]carbamoyl}phenyl)-6H-thieno[3,2-f][1,2,4]triazolo[4,3-a][1,4]diazepin-6-yl]acetate] stands 3.18 nM.
For the compound `CCC(=O)N1c2ccccc2[C@H](Nc2ccc(C(=O)NCCCNC(=O)c3ccc(Cn4c(CC)cc5c4CCCC5=O)cc3)cc2)C[C@@H]1C` (relative stereo) [Compound 1e, 4-[(2-Ethyl-4-oxo-4,5,6,7-tetrahydro-1H-indol-1-yl)methyl]-N-[3-(4-{[(2S*,4R*)-2-methyl-1-propionyl-1,2,3,4-tetrahydroquinolin-4-yl]amino}benzamide)propyl]benzamide], the IC90 is 39.8 nM.
Under `CCC(=O)N1c2ccccc2[C@H](Nc2ccc(NC(=O)COC(=O)N[C@H]3CC[C@H](N[C@@H]4C[C@H](C)N(C(=O)CC)c5ccccc54)CC3)cc2)C[C@@H]1C` [Compound 7f, 2-((4-(((2S,4R)-2-Methyl-1-propionyl-1,2,3,4-tetrahydroquinolin-4-yl)amino)phenyl)amino)-2-oxoethyl ((1R,4R)-4-(((2S,4R)-2-methyl-1-propionyl-1,2,3,4-tetrahydroquinolin-4-yl)amino)cyclohexyl)carbamate] stands 3.2 nM; under `CCC(=O)N1c2ccccc2[C@H](Nc2ccc(-c3nc(CNC(=O)C4CCC(N[C@@H]5C[C@H](C)N(C(=O)CC)c6ccccc65)CC4)no3)cc2)C[C@@H]1C` (relative stereo) [Compound 8k, (1R,4R)-4-(((2S*,4R*)-2-Methyl-1-propionyl-1,2,3,4-tetrahydroquinolin-4-yl)amino)-N-((5-(4-(((2S,4R)-2-methyl-1-propionyl-1,2,3,4-tetrahydroquinolin-4-yl)amino)phenyl)-1,2,4-oxadiazol-3-yl)methyl)cyclohexane-1-carboxamide], 0.26 nM.
